Experimental data reported in BindingDB's records for doi:10.1021/jm980314l (Tanabe Seiyaku, 1999).
Structures can show the parent of a compound that is named as a salt.

Target: cGMP-specific 3',5'-cyclic phosphodiesterase PDE5 (Cavia porcellus)
Assay: Inhibition of Phosphodiesterase 5 of guinea pig lung

Row | SMILES | IC50 [µM]
1 | COc1cc2cc(CO)c(CO)c(-c3ccnc(-n4ccc(=O)c5ccccc54)c3)c2cc1OC [1-[4-(2,3-Bis-hydroxymethyl-6,7-dimethoxy-naphthalen-1-yl)-pyridin-2-yl]-1H-quinolin-4-one] | 20
2 | COc1cc2cc(CO)c(CO)c(-c3ccnc(-n4nc(-c5ccccn5)c5ccccc5c4=O)c3)c2cc1OC [2-[4-(2,3-Bis-hydroxymethyl-6,7-dimethoxy-naphthalen-1-yl)-pyridin-2-yl]-4-pyridin-2-yl-2H-phthalazin-1-one; hydrochloride] | 9
3 | CCOc1cc2cc(CO)c(CO)c(-c3ccnc(-n4nc(-c5cccnc5)c5ccccc5c4=O)c3)c2cc1OCC [2-[4-(6,7-Diethoxy-2,3-bis-hydroxymethyl-naphthalen-1-yl)-pyridin-2-yl]-4-pyridin-3-yl-2H-phthalazin-1-one; hydrochloride] | 0.2
4 | CCOc1cc2cc(CO)c(CO)c(-c3ccnc(-n4nc(-c5cccnc5)c5ccccc5c4=O)c3)c2cc1OC [2-[4-(6-Ethoxy-2,3-bis-hydroxymethyl-7-methoxy-naphthalen-1-yl)-pyridin-2-yl]-4-pyridin-3-yl-2H-phthalazin-1-one; hydrochloride] | 1
5 | COc1cc2cc(CO)c(CO)c(-c3ccc(-n4nc(-c5cccnc5)c5ccccc5c4=O)nc3)c2cc1OC [2-[5-(2,3-Bis-hydroxymethyl-6,7-dimethoxy-naphthalen-1-yl)-pyridin-2-yl]-4-pyridin-3-yl-2H-phthalazin-1-one; hydrochloride] | 40

More lines, in order of falling IC50, values ahead:

Row | IC50 [µM] | SMILES
6 | 40 | COc1cc2cc(CO)c(CO)c(-c3ccnc(-n4ccccc4=O)c3)c2cc1OC [4'-(2,3-Bis-hydroxymethyl-6,7-dimethoxy-naphthalen-1-yl)-[1,2']bipyridinyl-2-one]
7 | 10 | O=c1c2ccccc2c(-c2cccnc2)nn1-c1cc(-c2c(CO)c(CO)cc3ccccc23)ccn1 [2-[4-(2,3-Bis-hydroxymethyl-naphthalen-1-yl)-pyridin-2-yl]-4-pyridin-3-yl-2H-phthalazin-1-one; hydrochloride]
8 | 4 | COc1cc2cc(CO)c(CO)c(-c3ccnc(-n4nc(-c5cccnc5)c5ccccc5c4=O)c3)c2cc1OC [2-[4-(2,3-Bis-hydroxymethyl-6,7-dimethoxy-naphthalen-1-yl)-pyridin-2-yl]-4-pyridin-3-yl-2H-phthalazin-1-one; hydrochloride]
